Values joined by “and” are separate entries in the source; they are usually repeats but may differ in a detail not shown here. Equal values may be shown once. Toxic doses and inconclusive results are not listed. No stated cut-off is given here; in the data, active means T/C of 150% or more; inactive means T/C below 125%.
System: L1210 leukemia ip in BDF1 mice, survival T/C
Assay: NCI In Vivo Anticancer Drug Screen. Data for tumor model L1210 Leukemia (intraperitoneal) in B6D2F1 (BDF1) mice
Details: endpoint: mean survival time, higher = longer survival
In short: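 Tumor was transplanted into mice, which were then dosed with test compound or vehicle alone. Survival was recorded for each group, and the treated figure was expressed relative to the control figure.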

[1] = dose: 50.0 mg/kg/injection, schedule: Q01DX001 (ip), vehicle: saline
[2] = dose: 100.0 mg/kg/injection, schedule: Q01DX001 (ip), vehicle: saline
[3] = dose: 100.0 mg/kg/injection, schedule: Q04DX003 (ip), vehicle: Klucel (hydroxypropylcellulose) (HPC)
[4] = dose: 200.0 mg/kg/injection, schedule: Q01DX001 (ip), vehicle: saline
[5] = dose: 200.0 mg/kg/injection, schedule: Q04DX003 (ip), vehicle: Klucel (hydroxypropylcellulose) (HPC)
[6] = dose: 400.0 mg/kg/injection, schedule: Q01DX001 (ip), vehicle: saline
[7] = dose: 400.0 mg/kg/injection, schedule: Q04DX003 (ip), vehicle: Klucel (hydroxypropylcellulose) (HPC)
[8] = dose: 50.0 mg/kg/injection, schedule: Q01DX001 (ip), vehicle: other
[9] = dose: 100.0 mg/kg/injection, schedule: Q01DX001 (ip), vehicle: other
[10] = dose: 200.0 mg/kg/injection, schedule: Q01DX001 (ip), vehicle: other
[11] = dose: 400.0 mg/kg/injection, schedule: Q01DX001 (ip), vehicle: other
[12] = dose: 100.0 mg/kg/injection, schedule: Q04DX003 (ip), vehicle: saline
[13] = dose: 200.0 mg/kg/injection, schedule: Q04DX003 (ip), vehicle: saline
[14] = dose: 400.0 mg/kg/injection, schedule: Q04DX003 (ip), vehicle: saline
[15] = dose: 100.0 mg/kg/injection, schedule: Q01DX009 (ip), vehicle: saline with Tween-80
[16] = dose: 200.0 mg/kg/injection, schedule: Q01DX009 (ip), vehicle: saline with Tween-80
[17] = dose: 100.0 mg/kg/injection, schedule: Q01DX001 (ip), vehicle: Klucel (hydroxypropylcellulose) (HPC)
[18] = dose: 200.0 mg/kg/injection, schedule: Q01DX001 (ip), vehicle: Klucel (hydroxypropylcellulose) (HPC)
[19] = dose: 400.0 mg/kg/injection, schedule: Q01DX001 (ip), vehicle: Klucel (hydroxypropylcellulose) (HPC)

Measured: T/C

CCCCSc1ncnc2c1ncn2C1CCCCO1 (stereo not given)
inactive: [1] 102 % of control | [2] 104 % of control | dose: 100.0 mg/kg/injection, schedule: Q01DX009 (ip), vehicle: saline sonified 94 % of control | [3] 103 % of control | [4] 102 % of control | dose: 200.0 mg/kg/injection, schedule: Q01DX009 (ip), vehicle: saline sonified 90 % of control | [5] 113 % of control | [6] 113 % of control | dose: 400.0 mg/kg/injection, schedule: Q01DX009 (ip), vehicle: saline sonified 113 % of control | [7] 124 % of control

O=C(NCCN1C(=O)C2C3CCC(O3)C2C1=O)Nc1ccc([N+](=O)[O-])cc1[N+](=O)[O-] (stereo not given)
inactive: dose: 100.0 mg/kg/injection, schedule: Q04DX002 (ip), vehicle: Klucel (hydroxypropylcellulose) (HPC) 108 % of control | dose: 200.0 mg/kg/injection, schedule: Q04DX002 (ip), vehicle: Klucel (hydroxypropylcellulose) (HPC) 101 % of control | dose: 400.0 mg/kg/injection, schedule: Q04DX002 (ip), vehicle: Klucel (hydroxypropylcellulose) (HPC) 108 % of control

O=C(CCCC(=O)N/N=C/c1ccc(OCc2ccccc2)cc1)N/N=C\c1ccc(OCc2ccccc2)cc1
inactive: [8] 102 % of control | [9] 93 % of control | [10] 93 % of control | [11] 91 % of control

CCOC(=O)Cn1ccc(=O)[nH]c1=O
inactive: [12] 98 % of control | [13] 96 % of control | [14] 102 % of control

CC1CN=C(c2c(O)ccc3ccccc23)S1 (stereo not given)
inactive: dose: 100.0 mg/kg/injection, schedule: Q04DX002 (ip), vehicle: gum acacia 96 % of control | dose: 200.0 mg/kg/injection, schedule: Q04DX002 (ip), vehicle: gum acacia 93 % of control | dose: 400.0 mg/kg/injection, schedule: Q04DX002 (ip), vehicle: gum acacia 90 % of control

COc1ccc(CN2CCCN(Cc3ccc(OC)cc3OC)C2c2cccc(F)c2)c(OC)c1
inactive: [1] 89 % of control | [2] 89 % of control | [4] 100 % of control | [6] 91 % of control

CCCCCCCC(=O)N1CCCN(C(=O)CCCCCCC)C1
inactive: dose: 30.0 mg/kg/injection, schedule: Q01DX001 (ip), vehicle: saline 94 % of control | [2] 100 % of control

CCC(C)(S(=O)(=O)CC)S(=O)(=O)CC
inactive: [15] 105 % of control | [16] 102 % of control | dose: 400.0 mg/kg/injection, schedule: Q01DX009 (ip), vehicle: saline with Tween-80 100 % of control

CCCC(=O)C(CCN(C)C)c1ccccn1 (stereo not given)
inactive: dose: 44.0 mg/kg/injection, schedule: Q01DX Z (ip), vehicle: methylcellulose (MC) 94 % of control | dose: 66.0 mg/kg/injection, schedule: Q01DX Z (ip), vehicle: methylcellulose (MC) 107 % of control

O=C(COc1ccccc1)Nc1cccc(C(=O)O)c1
inactive: [3] 104 % of control | [5] 93 % of control | [7] 109 % of control

Nc1nc(-c2ccccc2)c(CCCCc2ccccc2)c(=O)[nH]1
inactive: dose: 50.0 mg/kg/injection, schedule: Q01DX Z (ip), vehicle: carboxymethylcellulose (CMC) 97 % of control | dose: 200.0 mg/kg/injection, schedule: Q01DX Z (ip), vehicle: carboxymethylcellulose (CMC) 89 % of control

Nc1ccc(CSc2ccccc2)cc1F
inactive: dose: 100.0 mg/kg/injection, schedule: Q01DX009 (ip), vehicle: saline + alcohol 94 % of control | dose: 200.0 mg/kg/injection, schedule: Q01DX009 (ip), vehicle: saline + alcohol 93 % of control | dose: 400.0 mg/kg/injection, schedule: Q01DX009 (ip), vehicle: saline + alcohol 86 % of control

N#CSCc1cc(Cl)c(CSC#N)c(Cl)c1Cl
inactive: dose: 75.0 mg/kg/injection, schedule: Q01DX009 (ip), vehicle: saline 89 % of control | dose: 150.0 mg/kg/injection, schedule: Q01DX009 (ip), vehicle: saline 96 % of control | dose: 300.0 mg/kg/injection, schedule: Q01DX009 (ip), vehicle: saline 91 % of control

CC(=O)C(Cl)C(C)=O.CC(=O)CC(C)=O.CC(=O)CC(C)=O.[Rh]
inactive: [8] 108 % of control | [9] 102 % of control | [10] 98 % of control | [11] 98 % of control

Fc1cc(F)c2ncccc2c1
inactive: dose: 12.5 mg/kg/injection, schedule: Q01DX001 (ip), vehicle: carboxymethylcellulose (CMC) 103 % of control | dose: 25.0 mg/kg/injection, schedule: Q01DX001 (ip), vehicle: carboxymethylcellulose (CMC) 98 % of control | dose: 50.0 mg/kg/injection, schedule: Q01DX001 (ip), vehicle: carboxymethylcellulose (CMC) 101 % of control | dose: 75.0 mg/kg/injection, schedule: Q01DX001 (ip), vehicle: carboxymethylcellulose (CMC) 117 % of control | dose: 150.0 mg/kg/injection, schedule: Q01DX001 (ip), vehicle: carboxymethylcellulose (CMC) 118 % of control

OC1C(SCc2ccccc2)OCC2OC3(CCCCC3)OC21 (stereo not given)
inactive: [2] 100 % of control | [4] 102 % of control | [6] 104 % of control

C=C(C)c1ccc(C)cc1-c1c(OCc2ccccc2)ccc(CCCCC)c1OC
inactive: [17] 97 % of control | [18] 92 % of control | [19] 92 % of control

C=CC(=O)NCNC(=O)C=C
inactive: dose: 50.0 mg/kg/injection, schedule: Q04DX003 (ip), vehicle: carboxymethylcellulose (CMC) 100 % of control | [2] 97 % of control | dose: 100.0 mg/kg/injection, schedule: Q04DX003 (ip), vehicle: carboxymethylcellulose (CMC) 110 % of control | [4] 101 % of control | [6] 113 % of control

CC(=O)NC(Cc1cnc[nH]1)C(=O)O (stereo not given)
inactive: [2] 97 % of control | [4] 98 % of control | [6] 97 % of control

CN(C)c1ccc(/C=N/NC(=O)CCCCCCCCC(=O)N/N=C/c2ccc(N(C)C)cc2)cc1
inactive: dose: 12.5 mg/kg/injection, schedule: Q01DX009 (ip), vehicle: saline with Tween-80 101 % of control and 104 % of control | dose: 25.0 mg/kg/injection, schedule: Q01DX009 (ip), vehicle: saline with Tween-80 94 % of control and 97 % of control | dose: 50.0 mg/kg/injection, schedule: Q04DX003 (ip), vehicle: saline with Tween-80 98 % of control | dose: 100.0 mg/kg/injection, schedule: Q01DX001 (ip), vehicle: saline with Tween-80 100 % of control | dose: 100.0 mg/kg/injection, schedule: Q04DX002 (ip), vehicle: saline with Tween-80 101 % of control and 104 % of control | dose: 100.0 mg/kg/injection, schedule: Q04DX003 (ip), vehicle: saline with Tween-80 93 % of control | dose: 200.0 mg/kg/injection, schedule: Q01DX001 (ip), vehicle: saline with Tween-80 100 % of control | dose: 200.0 mg/kg/injection, schedule: Q04DX002 (ip), vehicle: saline with Tween-80 101 % of control and 102 % of control | dose: 400.0 mg/kg/injection, schedule: Q04DX002 (ip), vehicle: saline with Tween-80 108 % of control

CC1=C(Br)C(=O)C(c2c(C)c(Br)c(C)c([N+](=O)[O-])c2C)=C(Br)C1=O
inactive: [17] 98 % of control | [3] 102 % of control | [18] 93 % of control | [5] 102 % of control | [19] 106 % of control | [7] 91 % of control

N#CNC(=S)S
inactive: [12] 105 % of control | [13] 93 % of control | [14] 104 % of control

CCCCCCCC/C(C=O)=C\c1ccc(C)cc1
inactive: [2] 86 % of control | [4] 102 % of control | [6] 87 % of control

CC(=O)Oc1ccccc1[N+](=O)[O-]
inactive: dose: 100.0 mg/kg/injection, schedule: Q01DX009 (ip), vehicle: Klucel (hydroxypropylcellulose) (HPC) 106 % of control | dose: 200.0 mg/kg/injection, schedule: Q01DX009 (ip), vehicle: Klucel (hydroxypropylcellulose) (HPC) 91 % of control

O=C(NC/C(Br)=C/Br)c1ccccc1
inactive: [3] 96 % of control | [5] 100 % of control | [7] 96 % of control

Cc1ccc(C)c(NC(=O)NC2CCCCC2)c1
inactive: dose: 100.0 mg/kg/injection, schedule: Q04DX002 (ip), vehicle: saline 101 % of control | dose: 200.0 mg/kg/injection, schedule: Q04DX002 (ip), vehicle: saline 97 % of control | dose: 400.0 mg/kg/injection, schedule: Q04DX002 (ip), vehicle: saline 103 % of control

CC1CC=C(/C=N/NC(N)=O)C(C)O1 (stereo not given)
inactive: dose: 50.0 mg/kg/injection, schedule: Q01DX009 (ip), vehicle: saline with Tween-80 94 % of control | [15] 88 % of control | [16] 94 % of control

From PubChem BioAssay AID248 (DTP/NCI, 2004)
